Patent publication US20080306285A1, “Heat-Labile Prodrugs” (priority 2007, published 2008)
Read-outs that look alike come from different tables or passages of the source.

How the values were obtained:
[1] = FIG. 16, n=2
[2] = Pharmacokinetics of THC IV bolus in Beagle dogs; type: in vivo; conditions: dog, venous plasma, 0.9 mg, IV injection 0.9 mg THC
Experimental: Two weeks after dosing by inhalation, the same dogs were given a 0.9 mL (adjusted to match the aerosol output measured in the pre- and post-dose aerosol quality testing) bolus IV injection of THC (1 mg/mL THC and sodium ascorbate) in 0.9% NaCl aqueous solution.
(§1) All blood samples measured 0.5 mL and were collected in plastic vials containing K2EDTA as the anticoagulant. The vials were placed on wet ice until centrifugation to recover the plasma. The plasma samples were analyzed for THC, THCA, and the major metabolite (11-nor-9-carboxy-Δ^9-tetrahydrocannabinol) of THC using a mass spectrometry method.
(§2) Non-compartmental modeling of the venous THC plasma concentrations was performed using WinNonlin™ (WinNonlin Professional Version 4.1, Pharsight Corp., Mountain View, Calif.). Characterization of the gamma (third) terminal linear phase for the inhalation and IV portions of the study allowed us to compare the inhalation pharmacokinetics to those of IV.

[3] = oral dronabinol formulations of THC, cited from earlier work
[4] = Pharmacokinetics of THC aerosol by inhalation in Beagle dogs; type: in vivo; conditions: for Cmax / Tmax / half-life: plasma (venous); for Cmax / Tmax / half-life / AUC(0-inf): 0.93 mg, inhalation 0.93 mg THC + 0.11 THCA, venous plasma THC; for Fraction of THC Emitted Dose in Exhalation: based on 924 μg THC emitted dose; for BA: inhalation vs IV; for THC in Exhaled Breath: 5 sec breath hold; for time of maximum arterial plasma concentration: arterial blood, FIG. 14; for time of venous plasma concentration peak: venous blood, FIG. 15
Experimental: A study was conducted in order to compare the pharmacokinetics (PK) of delivering THC by inhalation from a thermally labile prodrug to those of an intravenous (IV) bolus. A device consisting of a control electronics PC board, air-flow regulator, inhalation valve, air-flow meter, and indo-tracheal tube was used to generate and administer THC aerosol to Beagle dogs. Two safety mechanisms built into the device prevent harm to the test subject: one that closes the inhalation valve when the selected air volume is delivered to the test subject, and one that vents the system to ambient air if the circuit board loses control over the system (due to power failure, etc.).
The in vivo portion of the study was designed with a target THC emitted dose of 0.98 mg. Aerosol quality samples were captured prior to and immediately following animal dosing in a manner consistent with previous pre-PK development work and the animal dosing parameters. The emitted dose samples were collected on 2 μm Teflon filters, while the particle size samples were collected using an ACI fitted with glass fiber filters. After aerosol collection, the filters were stored in amber vials in a freezer prior to analysis. All results were within the acceptable range determined from a previous development study.
For the inhalation portion, four Beagle dogs (2 male/2 female) were exposed to THC aerosol by forced maneuver inhalation exposure. A breath hold of 5 sec was followed by exhalation into a Teflon filter. The filters were placed in vials for analysis using HPLC. Body weight, inhalation volume, exhalation volume, and quantity of THC in exhalation for each test subject are set forth in Table Three, below.
as §1
Immediately after simultaneous administration of the drug and the prodrug, blood samples were drawn from both the arterial and venous circulation of the test subjects. Arterial sampling was more frequent at the early time points and was stopped at 10 minutes, while venous sampling continued to 24 hours.
as §2

[5] = Physical stability drop tests of THCA coatings; type: physicochemical; conditions: up to 1.0 mg/cm^2 on stainless steel, after 6 months storage at various conditions
From the text: An advantage of THCA is that it is a solid that forms a physically stable film, as opposed to Δ^9-THC, which is a viscous oil whose coated films are subject to flow.

[6] = Aerosol particle size by Anderson Cascade Impactor; type: physicochemical; conditions: THC aerosol from THCA film, 1 mg/cm^2, aerosol mass 1 mg, 28.3 L/min
Experimental: Particle size distribution is characterized by the mass median aerodynamic diameter (MMAD) and the geometric standard deviation (GSD). For thermal condensation aerosols, such as those disclosed herein and in our previous patent applications, particle size is governed by the competing mechanisms of condensation and Brownian aggregation.
All particle size experiments were conducted by vaporizing drug films into an 8-stage Anderson Cascade Impactor (ACI) fitted with a glass fiber filter. The ACI consists of several stages, with each successive stage having a smaller size cutoff. By extracting and determining the mass of drug deposited at each stage, it is possible to estimate the particle size distribution of the aerosol.
An air flow of 28.3 L/min was used to generate the aerosol and distribute it through the ACI. Each stage and filter was extracted with organic solvent and analyzed using HPLC. The MMAD and GSD were calculated from the quantity of aerosol on each stage. The MMAD for the THC aerosol (generated from THCA film, drug loading=1 mg/cm^2; aerosol mass=1 mg) was 2.2 μm and the GSD [84/16] was 2.2. In addition, the fine particle fraction (FPF, MMAD <5 μm) was over 95%. These values are well within the range normally accepted for effective pulmonary deposition.

[7] = Aerosolization of estradiol-t-BOC-Gly-Gly; type: physicochemical
Experimental: The prodrug, estradiol-t-BOC-Gly-Gly (shown in FIG. 12 and prepared as described above), was spray coated onto stainless steel test strips (1.347 mg; […] nominal film thickness). The test articles were placed in the screening device and heated by discharging a capacitor through the foils to thermally convert the prodrug back to estradiol and form a condensation aerosol. Tests were conducted on duplicate foils at each of three temperatures (325° C., 350° C., and 380° C.) determined by the discharge voltage of the capacitor. The aerosol was collected with a Teflon filter, and the trapped aerosol was extracted from the collection apparatus using organic solvent and analyzed using HPLC.
FIG. 17 is a bar graph 1700 showing percent estradiol in aerosol 1702 as a function of vaporization temperature 1704 (n=2). FIG. 18 is a bar graph 1800 showing percent prodrug in aerosol 1802 as a function of vaporization temperature 1804 (n=2).

[8] = Beagle, dog, inhaled or intranasal, subject 101
[9] = Beagle, dog, inhaled or intranasal, subject 102
[10] = Beagle, dog, inhaled or intranasal, subject 103
[11] = Beagle, dog, inhaled or intranasal, subject 104
[12] = both sexes, Beagle, dog, inhaled or intranasal, mean of 4 dogs

CC(C)c1cccc(C(C)C)c1OC(=O)OC(C)(C)C [Propofol-t-BOC-Ester, O-(t-butoxycarbonyl)-propofol]
aerosol purity of propofol as a function of vaporization temperature [1]: decrease with increasing vaporization temperature

CCCCCc1cc(O)c2c(c1)OC(C)(C)[C@@H]1CCC(C)=C[C@@H]21 [THC, Δ^9-tetrahydrocannabinol]
AUC(0-inf) ([2]; both sexes, mean of 4 dogs): 142 ng·h/mL
Cmax ([2]; both sexes, mean of 4 dogs): 1780 ng/mL
Tmax ([2]; both sexes, mean of 4 dogs): 0.38 min
half-life ([2]; both sexes, mean of 4 dogs): 50.8 min
AUC(0-inf) ([2]; female, subject 103): 139 ng·h/mL
Cmax ([2]; female, subject 103): 1410 ng/mL
Tmax ([2]; female, subject 103): 0.25 min
half-life ([2]; female, subject 103): 51.3 min
AUC(0-inf) ([2]; female, subject 104): 118 ng·h/mL
Cmax ([2]; female, subject 104): 1230 ng/mL
Tmax ([2]; female, subject 104): 0.5 min
half-life ([2]; female, subject 104): 36.6 min
AUC(0-inf) ([2]; male, subject 101): 164 ng·h/mL
Cmax ([2]; male, subject 101): 3770 ng/mL
Tmax ([2]; male, subject 101): 0.25 min
half-life ([2]; male, subject 101): 18.1 min
AUC(0-inf) ([2]; male, subject 102): 146 ng·h/mL
Cmax ([2]; male, subject 102): 697 ng/mL
Tmax ([2]; male, subject 102): 0.5 min
half-life ([2]; male, subject 102): 97.1 min
bioavailability ([3]; typical): less than 50%
Tmax [3]: up to 5 hours
Cmax [4, 8]: 341 ng/mL
Tmax [4, 8]: 3 min
half-life [4, 8]: 21 min
Cmax [4, 9]: 190 ng/mL
Tmax [4, 9]: 2 min
half-life [4, 9]: 32.5 min
Cmax [4, 10]: 358 ng/mL
Tmax [4, 10]: 2 min
half-life [4, 10]: 22.7 min
Cmax [4, 11]: 253 ng/mL
Tmax [4, 11]: 2 min
half-life [4, 11]: 55.8 min
Fraction of THC Emitted Dose in Exhalation ([4]; subject 101): 2.8%
Fraction of THC Emitted Dose in Exhalation ([4]; subject 102): 3.2%
Fraction of THC Emitted Dose in Exhalation ([4]; subject 103): 2.4%
Fraction of THC Emitted Dose in Exhalation ([4]; subject 104): 1.7%
Cmax [4, 12]: 286 ng/mL
Tmax [4, 12]: 2.3 min
half-life [4, 12]: 33 min
AUC(0-inf) ([4]; both sexes, Beagle, dog, venous plasma, inhaled or intranasal, mean of 4 dogs): 92.5 ng·h/mL
bioavailability ([4]; both sexes, Beagle, dog, venous plasma, inhaled or intranasal, inhalation): 67%
AUC(0-inf) ([4]; female, Beagle, dog, venous plasma, inhaled or intranasal, subject 103): 1140 ng·h/mL
AUC(0-inf) ([4]; female, Beagle, dog, venous plasma, inhaled or intranasal, subject 104): 92.6 ng·h/mL
difference in Tmax between THC and its prodrug Δ^9-THC-2-carboxylic acid ([4]; inhalation): 3 fold
BA ([4]; mean of 4 dogs): 67.4%
BA ([4]; subject 101): 59.7%
BA ([4]; subject 102): 43.9%
BA ([4]; subject 103): 84.5%
BA ([4]; subject 104): 81.6%
THC in Exhaled Breath ([4]; inhalation, subject 101 (M)): 26.2 µg
THC in Exhaled Breath ([4]; inhalation, subject 102 (M)): 29.6 µg
THC in Exhaled Breath ([4]; inhalation, subject 103 (F)): 22.3 µg
THC in Exhaled Breath ([4]; inhalation, subject 104 (F)): 15.8 µg
time of maximum arterial plasma concentration ([4]; inhalation): 90 s
time of venous plasma concentration peak ([4]; inhalation): about 150 seconds
AUC(0-inf) ([4]; male, Beagle, dog, venous plasma, inhaled or intranasal, subject 101): 99.4 ng·h/mL
AUC(0-inf) ([4]; male, Beagle, dog, venous plasma, inhaled or intranasal, subject 102): 64.5 ng·h/mL

CCCCCc1cc2c(c(O)c1C(=O)O)C1C=C(C)CCC1C(C)(C)O2 (stereo not shown) [THCA, Δ^9-THC-2-carboxylic acid]
physical stability of coating (drop tests) [5]: physically robust
GSD [84/16] [6]: 2.2
MMAD [6]: 2.2 μm
fine particle fraction (FPF, MMAD <5 μm) [6]: over 95%
absorption from the lung compared with THC ([4]; inhalation, FIGS. 14 and 15): substantially faster
time of maximum arterial plasma concentration ([4]; inhalation): about 30 seconds
time of venous plasma concentration peak ([4]; inhalation): about 50 seconds

CC(C)(C)OC(=O)NCC(=O)NCC(=O)Oc1ccc2c(c1)CC[C@@H]1[C@@H]2CC[C@]2(C)[C@@H](O)CC[C@@H]12 [estradiol-t-BOC-Gly-Gly, 3-(t-butoxycarbonyl-glycinyl-glycinate)-estradiol]
estradiol in aerosol ([7]; 325° C., 350° C., and 380° C., n=2, FIG. 17): approximately 94%
unconverted prodrug in captured aerosol ([7]; 325° C., 350° C., and 380° C., n=2, FIG. 18): 1.5-2%
thermal conversion of the precursor to estradiol ([7]; empirical studies): up to 95%
